The text below walks through data of US20050234119A1, “Antiparasitical agents and methods for treating, preventing and controlling external parasites in animals” (priority 2004, published 2005).

Series [1] in a line: Concentration in the fur of a dog after topical spot-on solution of the thioamide. The format is in vivo. Conditions: 0.1 ml/kg. The procedure: A topical spot-on solution of the thioamide solution containing 100 mg/ml of thioamide and diethylene glycol monoethyl ether was applied to the fur of a dog at the dose rate of 0.1 ml/kg of body weight. The concentration of fipronil in the fur was measured on day 2 and day 7.

A short description of series [2]: In vitro degradation studies of the thioamide derivative of fipronil in CH3CN/H2O under degradation agents. It is filed as physicochemical. As for the experimental part: A solution containing thioamide derivative of fipronil in a solution of CH3CN/H2O (50:50 v/v) and the solution was subjected to the following degradation agents: 0.5 N HCl; 0.5 N NaOH; 5% H2O2; UV light; fluorescent light and heat (65° C.).

Series [3] in a line: Concentration in blood plasma of dogs after oral solution of the thioamide derivative of fipronil. The format is in vivo. As for the experimental part:
An oral formulation (solution) comprising 100 mg/ml of thioamide derivatives of fipronil dissolved in 60:40 propylene glycol: glycerol formal was administered to dogs and the concentration of fipronil in blood plasma measured at 6 hours, day 1, day 2, and day 7 and is presented below

As to `NC(=S)c1nn(-c2c(Cl)cc(C(F)(F)F)cc2Cl)c(N)c1[S+]([O-])C(F)(F)F` (stereo not shown) [thioamide derivative of fipronil], the concentration at 2 day was 363000 ng/g in series [1] (Day 2, topical spot-on 100 mg/ml thioamide in diethylene glycol monoethyl ether) and 129000 ng/g in series [3] (dog, plasma, Day 2, oral solution 100 mg/ml thioamide derivative). The concentration at 7 day in series [1] (Day 7, topical spot-on 100 mg/ml thioamide in diethylene glycol monoethyl ether) was found to be 59300 ng/g; in series [3] (dog, plasma, Day 7, oral solution 100 mg/ml thioamide derivative), 54600 ng/g. In addition, the “stability in acid” value in series [2] (0.5 N HCl) is listed as “Thioamide derivative stable in acid with only”. Also, in series [2] (0.5 N HCl, 4 days), the “amounts of fipronil formed” value was “negligible”. For the same compound, the thioamide derivative degraded in series [2] (0.5 N HCl, in 4 days, solution of CH3CN/H2O (50:50 v/v)) is recorded as 2.7%; in series [2] (0.5 N NaOH, in 1 hour, CH3CN/H2O (50:50 v/v)) it was 95% if the thioamide derivative degraded in 1; in series [2] (5% H2O2, in 1.5 hours, CH3CN/H2O (50:50 v/v)), 100% of the thioamide derivation degraded in; in series [2] (UV light, in 1 hour, CH3CN/H2O (50:50 v/v)) it was 24% of the thioamide derivation degraded in 1. The fipronil formed entry in series [2] (0.5 N NaOH, 1 hour) is reported as “hour, but no fipronil was formed”; in series [2] (5% H2O2, 1.5 hours) it was 1.5 hours but no fipronil was formed; fipronil. The fipronil sulfone formed entry in series [2] (5% H2O2, 1.5 hours) is “sulfone was formed”. Moreover, the degraded to fipronil is on record as 23% degraded to fipronil in 4 days in series [2] (Fluorescent light, in 4 days, CH3CN/H2O (50:50 v/v)) and 20% of the thioamide derivation degraded to in series [2] (Heat (65° C.), in 4 days, CH3CN/H2O (50:50 v/v)). Moreover, the “concentration in blood plasma” value in series [3] (Pre-treatment, oral solution 100 mg/ml thioamide derivative in 60:40 propylene glycol:glycerol formal) was determined as 0.0 µg/g. In series [3] (dog, plasma, Day 0.25 (6 hours), oral solution 100 mg/ml thioamide derivative), this compound yielded a concentration at 6 h of 262000 ng/g. Also, in series [3] (dog, plasma, Day 1, oral solution 100 mg/ml thioamide derivative), the concentration at 1 day was 162000 ng/g. In addition, the “in-vivo degradation into fipronil” value in series [3] (oral solution) is “degrades into fipronil in-vivo in amounts that are sufficient for efficacy”.
